# What was measured:
# [1] = target: T1, PDE type III (Canis lupus familiaris, UniProt A0A8I3NYE0); assay: PDE Inhibiting Activity, type III; format: biochemical, dog (canine aorta); details: PDE type III from canine aorta, 1 μM substrate, pH 7.5; read-out: Inhibition Activity IC50, Type III
# T1 construct: PDE was purified from the aorta in a dog; from tissue; host or cells: dog aorta
# T1 sequence (A0A8I3NYE0 1-1135): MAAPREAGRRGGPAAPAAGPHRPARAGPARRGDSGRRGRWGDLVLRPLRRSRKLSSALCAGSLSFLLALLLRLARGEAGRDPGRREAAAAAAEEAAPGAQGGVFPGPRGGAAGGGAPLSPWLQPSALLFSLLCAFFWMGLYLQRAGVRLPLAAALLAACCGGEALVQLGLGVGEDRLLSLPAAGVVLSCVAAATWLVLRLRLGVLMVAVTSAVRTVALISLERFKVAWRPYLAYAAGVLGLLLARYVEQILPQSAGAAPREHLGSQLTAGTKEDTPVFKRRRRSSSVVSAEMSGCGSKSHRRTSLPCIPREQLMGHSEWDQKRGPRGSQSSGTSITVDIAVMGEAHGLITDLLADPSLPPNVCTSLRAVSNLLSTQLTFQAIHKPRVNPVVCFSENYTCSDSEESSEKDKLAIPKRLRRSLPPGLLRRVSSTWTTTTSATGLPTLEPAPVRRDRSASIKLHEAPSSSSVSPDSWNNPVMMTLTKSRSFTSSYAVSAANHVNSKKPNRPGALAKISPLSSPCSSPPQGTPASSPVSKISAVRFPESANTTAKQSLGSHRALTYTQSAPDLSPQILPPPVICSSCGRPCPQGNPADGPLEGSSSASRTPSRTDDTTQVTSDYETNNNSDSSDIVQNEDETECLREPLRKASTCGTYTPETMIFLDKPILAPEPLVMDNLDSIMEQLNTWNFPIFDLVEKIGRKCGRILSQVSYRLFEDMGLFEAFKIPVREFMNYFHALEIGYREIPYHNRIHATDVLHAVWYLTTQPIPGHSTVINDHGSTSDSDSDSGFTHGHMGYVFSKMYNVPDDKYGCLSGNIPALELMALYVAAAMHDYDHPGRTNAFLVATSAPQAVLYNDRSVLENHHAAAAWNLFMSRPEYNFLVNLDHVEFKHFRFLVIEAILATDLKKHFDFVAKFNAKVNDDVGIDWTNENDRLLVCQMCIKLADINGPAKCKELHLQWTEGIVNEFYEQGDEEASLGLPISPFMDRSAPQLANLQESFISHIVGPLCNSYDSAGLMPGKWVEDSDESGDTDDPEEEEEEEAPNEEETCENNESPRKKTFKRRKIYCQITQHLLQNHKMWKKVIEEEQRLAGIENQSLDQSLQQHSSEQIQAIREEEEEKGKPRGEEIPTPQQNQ
# Experimental: (§1) On the basis of the method of Lugnier et al. (Biochem. Pharmacol., 35, 1743-1751, 1986), PDE was purified from the aorta in a dog. The canine aorta was minced and homogenized with a Waring Blender and a glass homogenizer in six volumes of a Tris-HCl buffer solution (pH 7.5, 20 mM) containing 2 mM magnesium acetate, 5 mM ethylenediaminetetraacetic acid (EDTA), 100 μg/mL of phenylmethylsulforyl fluoride and 15 mM 2-mercaptoethanol (2-ME), and centrifuged at 1200 xg for 30 min. The supernatant was separated and salted out with ammonium sulfate which was added to 45% saturation. The resulting precipitated fraction was resuspended in a Tris-HCl buffer solution (pH 7.5, 20 mM) containing 2 mM magnesium acetate and 1 mM 2-ME, dialyzed overnight and applied to a DEAE-trisacryl column (DEAE […] M:IBF). By elution with a sodium chloride gradient (0-0.4 M), PDE types V and III were separated from the other isozymes. The supernatant fraction of 45% saturated ammonium sulfate was further mixed with ammonium sulfate to 65% saturation and salted out. The resulting precipitated fraction was similarly applied to the DEAE-trisacryl column and eluted by a sodium chloride gradient (0-0.4 M) so as to separate PDE type I.
# (§2) The thus obtained PDE types V, III and I were measured for their activity in accordance with the method of Thompson et al. (Adv. Cyclic Nucleotide Res., 10, 69-72, 1979) and the method of Wells et al. (Biochim. Biophys. Acta, 384, 430-443, 1975). Specifically, a purified PDE sample was added to 50 mM Tris-HCl buffer solution (pH 7.5) containing 1 μM of substrate cGMP or cAMP (containing tritium-labelled cGMP or cAMP), 1 mM EGTA and 2 mM magnesium acetate. For PDE activity measurement, enzymatically produced 5' GMP or 5' AMP was further hydrolyzed into guanosine or adenosine with snake venom and separated from the substrate by means of an ion-exchange resin (Dowex 1-X2), followed by measuring with a scintillation counter. The activity of each test compound was determined as a percentage of the DPE activity measured when it was added as a dimethyl sulfoxide solution (DMSO) and its IC50 (50% inhibition concentration) was calculated by the probit method. The final concentration of DMSO was adjusted to be no more than 2% in consideration of the effect on PDE activity.
# [2] = tested on: PDE type I; assay: PDE Inhibiting Activity, type I; format: biochemical, dog (canine aorta); details: PDE type I from canine aorta, 1 μM substrate, pH 7.5; read-out: Inhibition Activity IC50, Type I
# Experimental: as §1, §2
SMILES,IC50 [1] [µM],IC50 [2] [µM]
Cc1cn2c3ccc(Br)cc3c3cc(OCC(=O)OC(C)C)cc(c1=O)c32 [Example 51],> 30,> 30
"COc1cc2c(=O)ccn3c4ccc(Br)cc4c(c1)c23 [Example 58, 10-bromo-2-methoxy-4H-pyrido [3,2,1-jk]carbazole-4-one]",> 10,> 10
"CCCC(=O)COc1cc2c(=O)c(C)cn3c4ccc(Br)cc4c(c1)c23 [Example 57, 10-bromo-2-(2-oxopentyloxy)-5-methyl-4H-pyrido [3,2,1-jk]carbazole-4-one]",> 30,> 30
"COc1cc2c(=O)c(C)cn3c4ccc(Br)cc4c(c1)c23 [Example 48, 10-bromo-2-methoxy-5-methyl-4H-pyrido [3,2,1-jk]carbazole-4-one]",> 100,> 100
Cc1cc2c(=O)ccn3c4ccc(Br)cc4c(c1)c23 [Example 277],> 30,> 30
O=c1ccn2c3ccc(Br)cc3c3cc(OCc4ncon4)cc1c32 [Example 76],> 30,> 30
"O=c1c(Cc2ccccc2)cn2c3cc(Br)ccc3c3cc(O)cc1c32 [Example 122, 5-benzyl-9-bromo-2-hydroxy-4H-pyrido [3,2,1-jk]carbazole-4-one]",13,> 30
"COc1cc2c(=O)c(Cc3ccccc3)cn3c4cc(Br)ccc4c(c1)c23 [Example 121, 5-benzyl-9-bromo-2-methoxy-4H-pyrido [3,2,1-jk]carbazole-4-one]",> 30,> 30
O=c1ccn2c3ccc(Br)cc3c3cc(OCc4ccccc4)cc1c32 [Example 66],> 30,> 30
"O=C(O)COc1cc2c(=O)ccn3c4ccc(Br)cc4c(c1)c23 [Example 63, 10-bromo-2-carboxymethyloxy-4H-pyrido [3,2,1-jk]carbazole-4-one]",> 30,> 30
"CCOC(=O)COc1cc2c(=O)c(Cc3cccnc3)cn3c4ccc(Br)cc4c(c1)c23 [Example 5, 10-bromo-2-ethoxycarbonylmethyloxy-5-(3-pyridylmethyl)-4H-pyrido [3,2,1-jk]carbazole-4-one]",19,> 30
"CC(C)OC(=O)COc1cc2c(=O)ccn3c4ccc(Br)cc4c(c1)c23 [Example 61, 10-bromo-2-i-propoxycarbonylmethyloxy-4H-pyrido [3,2,1-jk]carbazole-4-one]",> 30,> 30
"CCOC(=O)COc1cc2c(=O)ccn3c4ccc(Br)cc4c(c1)c23 [Example 62, 10-bromo-2-ethoxycarbonylmethyloxy-4H-pyrido [3,2,1-jk]carbazole-4-one]",> 30,> 30
"CCCC(=O)COc1cc2c(=O)ccn3c4ccc(Br)cc4c(c1)c23 [Example 83, 10-bromo-2-(2-oxopentyloxy)-4H-pyrido [3,2,1-jk]carbazole-4-one]",> 30,> 30
"CCOC(=O)COc1cc2c(=O)c(C)cn3c4ccc(Br)cc4c(c1)c23 [Example 52, 10-bromo-2-ethoxycarbonylmethyloxy-5-methyl-4H-pyrido [3,2,1-jk]carbazole-4-one]",> 30,> 30
"COc1cc2c(=O)c(Cc3cccnc3)cn3c4cc(Br)ccc4c(c1)c23 [Example 101, 9-bromo-2-methoxy-5-(3-pyridylmethyl)-4H-pyrido [3,2,1-jk]carbazole-4-one]",> 30,> 30
CC(=O)Oc1cc2c(=O)ccn3c4ccc(Br)cc4c(c1)c23 [Example 82],> 100,> 100
"O=c1ccn2c3ccc(Br)cc3c3cc(OCc4cccnc4)cc1c32 [Example 64, 10-bromo-2-(3-pyridylmethyloxy)-4H-pyrido [3,2,1-jk]carbazole-4-one]",81,> 100
"CC(=O)OCc1cncc(COc2cc3c(=O)c(Cc4cccnc4)cn4c5cc(Br)ccc5c(c2)c34)c1 [Example 106, 2-(5-acetoxymethyl-3-pyridylmethyloxy)-9-bromo-5-(3-pyridylmethyl)-4H-pyrido [3,2,1-jk]carbazole-4-one]",> 30,> 30
"CC(C)(C)OC(=O)COc1cc2c(=O)c(Cc3cccnc3)cn3c4cc(Br)ccc4c(c1)c23 [Example 103, 9-bromo-2-t-butoxycarbonyl-methyloxy-5-(3-pyridylmethyl)-4H-pyrido [3,2,1-jk]carbazole-4-one]",> 30,

# More lines, now with the values ahead:
IC50 [1] [µM],IC50 [2] [µM],SMILES
3.5,> 30,"O=C(O)COc1cc2c(=O)c(Cc3cccnc3)cn3c4cc(Br)ccc4c(c1)c23 [Example 104, 9-bromo-2-carboxymethyloxy-5-(3-pyridylmethyl)-4H-pyrido [3,2,1-jk]carbazole-4-one]"
3.6,> 30,"O=c1c(Cc2cccnc2)cn2c3ccc(Br)cc3c3cc(O)cc1c32 [Example 2, 10-bromo-2-hydroxy-5-(3-pyridylmethyl)-4H-pyrido [3,2,1-jk]carbazole-4-one]"
1.9,> 30,"O=c1c(Cc2cccnc2)cn2c3ccc(Br)cc3c3cc(OCc4cccnc4)cc1c32 [Example 18, 10-bromo-5-(3-pyridylmethyl)-2-(3-pyridylmethyloxy)-4H-pyrido [3,2,1-jk]carbazole-4-one]"
3.6,> 30,"O=c1c(Cc2cccnc2)cn2c3cc(Cl)ccc3c3cc(OCCCO)cc1c32 [Example 283, 9-chloro-2-(3-hydroxypropyloxy)-5-(3-pyridylmethyl)-4H-pyrido[3,2,1-jk]carbazole-4-one]"
11,> 30,"O=c1c(Cc2cccnc2)cn2c3ccc(Br)cc3c3cc(OCc4ccccc4)cc1c32 [Example 22, 2-benzyloxy-10-bromo-5-(3-pyridylmethyl)-4H-pyrido [3,2,1-jk]carbazole-4-one]"
6.8,> 30,"CC(C)OC(=O)COc1cc2c(=O)c(Cc3cccnc3)cn3c4ccc(Br)cc4c(c1)c23 [Example 4, 10-bromo-2-i-propoxycarbonylmethyloxy-5-(3-pyridylmethyl)-4H-pyrido [3,2,1-jk]carbazole-4-one]"
12,> 30,CC(=O)Oc1ccc2c3cccc4c(=O)c(Cc5cccnc5)cn(c2c1)c43 [Example 226]
2.5,> 30,"O=c1c(Cc2cccnc2)cn2c3cc(C(F)(F)F)ccc3c3cc(OCCCO)cc1c32 [Example 289, 2-(3-hydroxypropyloxy)-5-(3-pyridylmethyl)-9-trifluoromethyl-4H-pyrido[3,2,1-jk]carbazole-4-one]"
3.9,> 30,CCOC(=O)COc1cc2c(=O)c(Cc3cccnc3)cn3c4ccc(Cl)cc4c(c1)c23 [Example 245]
